# In US20210300943A1, “OGA INHIBITOR COMPOUNDS” (Janssen Pharmaceutica NV, priority 2018, published 2021):
# What was measured:
# [1] = biological target: T1, OGA (Homo sapiens, UniProt O60502); test: OGA cellular assay (ICC detection of O-GlcNAcylated proteins in HEK293 cells inducible for P301L mutant human Tau); type: cell-based; details: for Emax: HEK293, HEK293 cells inducible for P301L mutant human Tau; for EC50: 6 hours incubation, read-out: Cellular hOGA, pEC50 (converted)
# T1 construct: endogenous in cells; host or cells: HEK293 cells inducible for P301L mutant human Tau (2N4R)
# T1 sequence (O60502 1-916): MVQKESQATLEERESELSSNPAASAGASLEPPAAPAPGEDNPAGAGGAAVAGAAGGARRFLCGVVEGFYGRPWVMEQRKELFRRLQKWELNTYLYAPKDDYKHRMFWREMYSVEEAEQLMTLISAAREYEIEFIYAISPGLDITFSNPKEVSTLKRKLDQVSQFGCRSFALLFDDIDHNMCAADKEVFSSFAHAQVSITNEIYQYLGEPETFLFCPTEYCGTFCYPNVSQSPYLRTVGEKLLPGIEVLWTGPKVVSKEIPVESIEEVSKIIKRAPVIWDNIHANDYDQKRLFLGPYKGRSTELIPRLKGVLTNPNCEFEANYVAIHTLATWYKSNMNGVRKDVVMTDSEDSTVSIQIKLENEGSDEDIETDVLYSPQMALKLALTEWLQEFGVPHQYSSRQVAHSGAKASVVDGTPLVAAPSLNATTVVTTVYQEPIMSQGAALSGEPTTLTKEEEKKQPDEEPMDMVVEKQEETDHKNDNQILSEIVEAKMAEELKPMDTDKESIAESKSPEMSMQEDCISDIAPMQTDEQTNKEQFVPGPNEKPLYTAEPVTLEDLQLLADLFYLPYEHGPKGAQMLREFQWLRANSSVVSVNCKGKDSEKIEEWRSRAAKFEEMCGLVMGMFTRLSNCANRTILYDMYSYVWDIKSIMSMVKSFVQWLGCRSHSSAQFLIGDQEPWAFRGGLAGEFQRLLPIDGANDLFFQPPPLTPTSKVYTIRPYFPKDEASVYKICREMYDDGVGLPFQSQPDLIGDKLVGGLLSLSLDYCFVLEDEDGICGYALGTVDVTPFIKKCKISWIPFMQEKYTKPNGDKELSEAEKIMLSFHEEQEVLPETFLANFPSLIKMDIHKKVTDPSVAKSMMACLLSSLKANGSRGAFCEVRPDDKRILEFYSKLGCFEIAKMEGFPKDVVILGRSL
# Procedure: HEK293 cells inducible for P301L mutant human Tau (isoform 2N4R) were established at Janssen. Thiamet-G was used for both plate validation (high control) and as reference compound (reference EC50 assay validation). OGA inhibition is evaluated through the immunocytochemical (ICC) detection of O-GlcNAcylated proteins by the use of a monoclonal antibody (CTD110.6; Cell Signaling, #9875) detecting 0-GlcNAcylated residues as previously described (Dorfmueller et al. 2010 Chemistry & biology, 17:1250). Inhibition of OGA will result in an increase of O-GlcNAcylated protein levels resulting in an increased signal in the experiment. Cell nuclei are stained with Hoechst to give a cell culture quality control and a rough estimate of immediate compounds toxicity, if any. ICC pictures are imaged with a Perkin Elmer Opera Phenix plate microscope and quantified with the provided software Perkin Elmer Harmony 4.1.
# Cells were propagated in DMEM high Glucose (Sigma, #D5796) following standard procedures. 2 days before the cell assay cells are split, counted and seeded in Poly-D-Lysine (PDL) coated 96-wells (Greiner, #655946) plate at a cell density of 12,000 cells per cm^2 (4,000 cells per well) in 100 μl of Assay Medium (Low Glucose medium is used to reduce basal levels of GlcNAcylation) (Park et al. 2014 The Journal of biological chemistry 289:13519). At the day of compound test medium from assay plates was removed and replenished with 90 μl of fresh Assay Medium. 10 μl of compounds at a 10 fold final concentration were added to the wells. Plates were centrifuged shortly before incubation in the cell incubator for 6 hours. DMSO concentration was set to 0.2%. Medium is discarded by applying vacuum. For staining of cells medium was removed and cells washed once with 100 μl D-PBS (Sigma, #D8537). From next step onwards unless other stated assay volume was always 50 μl and incubation was performed without agitation and at room temperature. Cells were fixed in 50 μl of a 4% paraformaldehyde (PFA, Alpha aesar, #043368) PBS solution for 15 minutes at room temperature. […] Before analysis samples were washed 2 times manually for 5 minutes in ICC base buffer.
# Imaging is performed using Perkin Elmer Phenix Opera using a water 20× objective and recording 9 fields per well. Intensity readout at 488 nm is used as a measure of O-GlcNAcylation level of total proteins in wells. To assess potential toxicity of compounds nuclei were counted using the Hoechst staining. IC50-values are calculated using parametric non-linear regression model fitting. As a maximum inhibition Thiamet G at a 200 uM concentration is present on each plate. In addition, a concentration response of Thiamet G is calculated on each plate.
# [2] = biological target: T2, recombinant human Meningioma Expressed Antigen 5 (MGEA5), also referred to as O-GlcNAcase (OGA) (Homo sapiens, UniProt O60502); test: OGA biochemical assay (inhibition of FM-GlcNAc hydrolysis, fluorescence); details: for Emax: read-out: Enzymatic Emax (%); for IC50: read-out: Enzymatic hOGA, pIC50 (converted)
# T2 construct: Full length OGA enzyme was purchased at OnGene (cat #TP322411); purchased OnGene (so in the source)
# T2 sequence (O60502 1-916): T1 sequence (O60502 1-916)
# Description: The assay is based on the inhibition of the hydrolysis of fluorescein mono-β-D-N-Acetyl-Glucosamine (FM-GlcNAc) (Mariappa et al. 2015, Biochem J 470:255) by the recombinant human Meningioma Expressed Antigen 5 (MGEA5), also referred to as O-GlcNAcase (OGA). The hydrolysis FM-GlcNAc (Marker Gene technologies, cat #M1485) results in the formation of β-D-N-glucosamineacetate and fluorescein. The fluorescence of the latter can be measured at excitation wavelength 485 nm and emission wavelength 538 nm. An increase in enzyme activity results in an increase in fluorescence signal. Full length OGA enzyme was purchased at OnGene (cat #TP322411). The enzyme was stored in 25 mM Tris.HCl, pH 7.3, 100 mM glycine, 10% glycerol at −20° C. Thiamet G and GlcNAcStatin were tested as reference compounds (Yuzwa et al. 2008 Nature Chemical Biology 4:483; Yuzwa et al. 2012 Nature Chemical Biology 8:393). The assay was performed in 200 mM Citrate/phosphate buffer supplemented with 0.005% Tween-20. 35.6 g Na2HPO42H2O (Sigma, #C0759) were dissolved in 1 L water to obtain a 200 mM solution. 19.2 g citric acid (Merck, #1.06580) was dissolved in 1 L water to obtain a 100 mM solution. pH of the sodiumphosphate solution was adjusted with the citric acid solution to 7.2. The buffer to stop the reaction consists of a 500 mM Carbonate buffer, pH 11.0. 734 mg FM-GlcNAc were dissolved in 5.48 mL DMSO to obtain a 250 mM solution and was stored at −20° C. OGA was used at a 2 nM concentration and FM-GlcNAc at a 100 uM final concentration. Dilutions were prepared in assay buffer.
# 50 nl of a compound dissolved in DMSO was dispensed on Black Proxiplate TM 384 Plus Assay plates (Perkin Elmer, #6008269) and 3 μl fl-OGA enzyme mix added subsequently. Plates were pre-incubated for 60 min at room temperature and then 2 μl FM-GlcNAc substrate mix added. […] Plates were briefly centrifuged for 1 min at 1000 rpm and incubate at room temperature for 6 h. To stop the reaction 5 μl STOP buffer were added and plates centrifuge again 1 min at 1000 rpm. Fluorescence was quantified in the Thermo Scientific Fluoroskan Ascent or the PerkinElmer EnVision with excitation wavelength 485 nm and emission wavelength 538 nm.
# For analysis a best-fit curve is fitted by a minimum sum of squares method. From this an IC50 value and Hill coefficient was obtained. High control (no inhibitor) and low control (saturating concentrations of standard inhibitor) were used to define the minimum and maximum values.
# [3] = maximal effect, Thiamet G 200 uM as maximum
# [4] = HEK293 cells inducible for P301L mutant human Tau
"Emax [1, 3] [%]","EC50 [1, 4] [nM]",Emax ([2]; maximal effect) [%],IC50 [2] [nM],"Cellular Emax (%) ([1]; HEK293 cells inducible for P301L mutant human Tau, maximal effect, Thiamet G 200 uM as maximum)",Enzymatic Emax (%) ([2]; maximal effect),SMILES
78,2.51,100,2.51,–,–,"Cc1cc([C@H]2CCCN(C(C)c3nc4c(cc3F)CCO4)C2)cc(C)n1 (single isomer, unassigned) [Product 171]"
78,10,98,15.8,–,–,Cc1cc(C2CCCN(C(C)c3nc4c(cc3F)CCO4)C2)cc(C)n1 (centres unmarked) [Product 148]
77,79.4,103,5.01,–,–,"Cc1cc(C[C@H]2CCCN(C(C)c3cnc4c(c3)OCCO4)C2)cc(C)n1 (single isomer, unassigned) [Product 132]"
–,> 1000,103,126,–,–,Cc1cc(C[C@H]2CCCN(C(C)c3ccc4c(c3)OCCN4C)C2)cc(C)n1 (mixture of isomers) [Product 49]
85,6.92,102,6.31,–,–,Cc1cc(C2CCCN(C(C)c3nc4c(cc3F)OCCO4)C2)cc(C)n1 (centres unmarked) [Product 151]
71,251,97,20,–,–,Cc1cc(CN[C@H]2CCCN(C(C)c3ccc4c(n3)OCCO4)C2)cc(C)n1 (some centres unmarked) [Product 194]
70,20,103,5.01,–,–,Cc1cc([C@H]2CCCN([C@@H](C)c3ccc4c(c3)OCC4)C2)cc(C)n1 (racemic) [Product 4]

# The next lines start with the molecule.
SMILES,"Emax [1, 3] [%]","EC50 [1, 4] [nM]",Emax ([2]; maximal effect) [%],IC50 [2] [nM],"Cellular Emax (%) ([1]; HEK293 cells inducible for P301L mutant human Tau, maximal effect, Thiamet G 200 uM as maximum)",Enzymatic Emax (%) ([2]; maximal effect)
CC(c1nc2c(cc1F)OCCO2)N1CCC[C@@H](CNc2ccc(F)cc2)C1 (some centres unmarked) [Product 195],112,79.4,100,15.8,–,–
Cc1cc(C[C@H]2CCCN(Cc3ccc4c(n3)OCCO4)C2)cc(C)n1 [Product 43],60,501,101,63.1,–,–
Cc1cc(C[C@H]2CCCN(C(C)c3cc4c(cc3F)OCCO4)C2)cc(C(F)(F)F)n1 (mixture of isomers) [Product 68],79,39.8,102,6.31,–,–
Cc1cc(C[C@H]2CCCN(Cc3ccc4c(c3)OCCN4C)C2)cc(C)n1 [Product 48],5,> 1000,93,501,–,–
"Cc1cc(OC[C@H]2CCCN(C(C)c3nc4c(cc3F)OCCO4)C2)cc(C)n1 (single isomer, unassigned) [Product 156]",–,316,–,251,55,97
Cc1cc(OC[C@H]2CCCN([C@H](C)c3nc4c(cc3F)OCCO4)C2)cc(C)n1 [Product 154],86,126,101,50.1,–,–
Cc1cc(C[C@H]2CCCN(C(C)c3ccc4c(n3)OCCO4)C2)cc(C(F)(F)F)n1 (mixture of isomers) [Product 69],90,50.1,102,12.6,–,–
"COc1cc(OC[C@H]2CCCN([C@H](C)c3ccc4c(n3)OCCO4)C2)cc(C)n1 (single isomer, unassigned) [Product 183]",65,50.1,99,7.94,–,–
Cc1cc(OC[C@H]2CCCN([C@@H](C)c3nc4c(cc3F)OCCO4)C2)cc(C)n1 [Product 153],94,2.51,102,1.58,–,–
COc1cc(C[C@H]2CCCN(C(C)c3ccc4c(n3)OCCO4)C2)cc(C)n1 (mixture of isomers) [Product 63],69,31.6,101,7.94,–,–
Cc1cc(OC2CCCN(C(C)c3cc4c(cc3F)OCCO4)C2)cc(C(F)(F)F)n1 (centres unmarked) [Product 15],16,> 1000,103,20,–,–
